Data as given in US20080220100A1, “Fermented panax notoginseng solution with anti-cancer effects and manufacture method thereof” (MICROBIO COMPANY LTD., TAIWAN, priority 2007, published 2008).

Experiments:
[1] = Anti-oxidation capacity relative to vitamin E; conditions: vitamin E defined to 100; medium with increasing share of black bean powder
Excerpt: The same procedure carried out in Example 2 was repeated except that the content of the Panax notoginseng medium was changed. The content of the Panax notoginseng medium included 4 types: ¼ Panax notoginseng powder and ¾ black powder, ½ Panax notoginseng powder and 1/2 black powder, ¾ Panax notoginseng powder and ¼ black powder, and all Panax notoginseng powder.

Hep 3B/T2 cancer cells = experiment: SCID mice injected with Hep 3B/T2 cancer cells, fed fermented product for 35 days; format: in vivo; conditions: positive control group
Method: SCID mice with 18 to 22 g body weight were classified into 5 groups and 10 mice per group. […] The tumor size of the SCID mice was measured every 3 to 4 days, and the weight of the heart, liver, spleen, lung, and kidney of the SCID mice was measured when the experiment was finished.

Heart weight (Hep 3B/T2 cancer cells) | Kidney weight (Hep 3B/T2 cancer cells) | Liver weight (Hep 3B/T2 cancer cells) | Lung weight (Hep 3B/T2 cancer cells) | Spleen weight (Hep 3B/T2 cancer cells) | Compound | anti-oxidation capacity [1] | Tumor weight (Hep 3B/T2 cancer cells)
– | – | – | – | – | vitamin E | 100 | –
143.2 ± 14.6 mg | 328.2 ± 26.2 mg | 1171.3 ± 103.0 mg | 215.8 ± 23 mg | 118.7 ± 35.6 mg | O=c1[nH]cc(F)c(=O)[nH]1 [5-FU, fluorouracil] | – | 376.1 ± 232.9 mg
